# Measured values reported in patent US20030211036A1, “Method and apparatus for monitoring and quantitatively evaluating tumor perfusion” (priority 2002, published 2003).
# Columns and labels:
# [1] = General well-being of the animals under the slow i.v. 2H-saline infusion protocol; type: in vivo, mice; details: i.v. infusion of 1 ml 2H-saline at 100 μl/min
# Experimental: (§1) Enrichment of the mice's blood with HDO (99.8%) was achieved by applying a slow i.v. infusion of I ml ^2H-saline with a rate of 100 μl/min.
# [2] = HDO concentration in mice plasma by 2H-MRS during and post 2H-saline i.v. infusion (arterial input function); type: in vivo
# Experimental: as §1
# Blood samples ([…]) were drawn from anesthetized mice by retro orbital sinus puncture at 7 time points, 3 mice for each time point, during and post ^2H saline infusion. Samples were collected into separate tubes containing heparin (50 units/ml of blood, Elkins-Sinn Inc., Cherry Hill, N.J.) and were centrifuged at room temperature. The plasma supernatant samples were separated and transferred into 5 mm NMR tubes. ^2H-MR spectra of the plasma samples were recorded at 61.4 MHz on DMX-400 spectrometer (Bruker Analytik, Germany), with a broad-band probe by applying 90° pulses with 4 s repetition time (fully relaxed conditions). Choline-(CD3)3 was added to each plasma sample as an internal reference for concentration.
# The 2-compartment kinetic model related the concentration of the tracer in the tissue to tissue's perfusion, as shown by Eq. [3]. Thus, knowledge of the changing arterial tracer concentration over time, termed arterial input function, was required for the numerical solution of the model. In order to obtain qualitative ^2H-images of the tumors and to allow monitoring of HDO uptake with high spatial resolution, a slow i.v. infusion of ^2H-saline, 1 ml in 10 min. was applied. This protocol enriched the content of HDO in the plasma, which is 0.0148% at natural abundance, by 6.8% of HDO that is below toxic levels (13, 14). HDO concentration in the plasma, determined by ^2H-MRS, was monitored during and post-^2H saline infusion (FIG. 1A). During the infusion, HDO accumulated linearly with a correlation coefficient, R^2, of 0.996. The slow decay of HDO in the plasma, post-infusion, approximated linearity with R^2=0.730. Thus, a linear regression analysis of the blood input function Cp(t), was applied in parts, producing two linear functions: (i) during ^2H-saline infusion at t=t0−tinfus, Cp(t)=f(t)=at+b and (ii) post ^2H-saline infusion at t=tinfus−tend, Cp(t)=g(t)=ct+d. […] The plasma concentrations of HDO before and at the end of ^2H-saline infusion were b=0.016 mmol·ml^−1 and d=7.69 mmol·ml^−1, respectively.
# [3] = system: orthotopic MCF7 human breast cancer tumors; assay: Dynamic 3D 2H-MRI of HDO perfusion with two-compartment model-based analysis per voxel; type: in vivo, CD1-NU mice
# From the text: A two-compartment model was custom developed for this activity to describe the kinetics of HDO in MCF7 tumors. The model, designed by Yeung et al. (41) to calculate blood brain transfer constant, is a special case of Patlak's blood-brain exchange model (31, 32). In the present work, the two compartments were assigned to the intravascular space with its respective volume fraction vp and the extravascular space, with its effective volume fraction of water ve* which is approximately 70% of the actual extravascular volume ve (ve*=0.7 ve) their respective volume fraction vp and ve* where,
# The experimental kinetic data were fitted to Eq. [7] and Eq. [8] with two free parameters: K and vp, using the following substitutions: ve*=1−vp and kb=K/(1−vp). Deuterium signal intensity per pixel in arbitrary units was converted to Cv(t) in mmol/ml using a calibration solution of known deuterium concentration in saline solution ( 9.9 mmol/ml).
# The method and apparatus of the present invention were tested experimentally according to the following protocol. Female CD1-NU athymic mice, 6 weeks old, were orthotopically inoculated in the mammary fat pad with MCF7 human breast cancer cells as previously described (33). Tumors were allowed to develop for 4-8 weeks, to sizes ranging between 0.2-2 cm^3 with average size 0.8±0.2 cm^3. For the MRI measurements, mice were anesthetized by exposure to 1% isoflurane (Medeva Pharmaceuticals, Inc., Rochester, N.Y.), in an O2/N2O (3:7) mixture, applied through a nose cone. Approval was obtained for all animal procedures according to the guidelines of the Committee on Animals of the Weizmann Institute of Science.
# as §1
# In-vivo imaging was accomplished by taking MR images and recording with a 4.7 T Biospec spectrometer (Bruker Analytik, Germany). ^2H and ^1H images were recorded at frequencies of 30.7 MHz and 200 MHz, respectively, and detected by a home-built double-tuned ^2H/^1H surface coil system, 1.5/2.5 cm in diameter. Dynamic ^2H MR images were acquired utilizing a 3-dimensional (3D) gradient echo sequence with the following parameters: echo time (TE)=3 msec, […] (TR)=60 msec, flip angle=45° achieved by an adiabatic pulse (sin/cos), 2 averages, matrix—128×64×16, 2.6 mm slice thickness, an in-plane resolution of 1×2 mm2 and acquisition time of 2.05 min. The sequential acquisition of ^2H-images began with a pre-infusion image and continued throughout ^2H-saline iv. infusion, into the tail vein of the mouse (1 ml/10 min.), and for 30 minutes thereafter. The pre-infusion images were recorded with a tube containing 9.9 mmol/ml HDO in saline solution, attached to the tumor. This served to calibrate the signal intensity to deuterium concentration in units of mmol/ml.
# Image analysis was applied on the time evolution of ^2H intensity in a series of coronal images that were reconstructed from dynamic 3D images of the whole tumor acquired before, during and post ^2H-saline infusion. Analysis was performed utilizing a nonlinear least-square fitting algorithm, developed for the purpose of the invention, at a voxel resolution. The computed analysis initially converted ^2H intensity to concentration by referring to the intensity at the pre-infusion image (t=0) in the attached calibration tube that contained a solution of HDO at a concentration of 9.9 mmol/ml. […]
# [4] = cited from earlier work
smiles,measurement,setting,value
"[2H]O[2H] [HDO, deuterated water]",adverse effects on the general well-being of the animals,[1],no adverse effects
same,plasma concentration of HDO before 2H-saline infusion (b),"[2]; mice plasma, before infusion",16000 µM
same,plasma concentration of HDO at the end of 2H-saline infusion (d),"[2]; mice plasma, end of i.v. infusion, 1 ml in 10 min",7.69e+06 µM
same,rate of HDO clearance from plasma post infusion (c),"[2]; mice plasma, post 2H-saline infusion, linear regression g(t)=ct+d",-0.07 mmol/mL/min
same,rate of HDO accumulation in plasma during infusion (a),"[2]; mice plasma, slow i.v. infusion of 2H-saline, 1 ml in 10 min, linear regression f(t)=at+b",0.67 mmol/mL/min
same,enrichment of the content of HDO in the plasma,"[2]; slow i.v. infusion of 2H-saline, 1 ml in 10 min, natural abundance 0.0148%",6.8%
same,concentration of HDO in the plasma upon infusion with respect to bolus injection,[2]; slow i.v. infusion versus bolus injection of 200 μl,~6 times higher
same,"K, fit to the HDO perfusion kinetic model","[3]; FIG. 3 single voxel (a), R^2=0.94",0.0016 min⁻¹
same,"K, fit to the HDO perfusion kinetic model","[3]; FIG. 3 single voxel (b), R^2=0.94",0.0005 min⁻¹
same,"K, fit to the HDO perfusion kinetic model","[3]; FIG. 3 single voxel (c), R^2=0.96",0.0031 min⁻¹
same,range of the perfusion rate per voxel,"[3]; all voxels of the parametric maps, seven MCF7 tumors",4e-06 to 0.0039 min⁻¹
same,"Perfusion rate, K, Mean, Average",[3]; average of the total population of voxels in the ROIs of all tumors (n = 1278 pixels),1.02 ± 0.02 ·10^−3 min^−1
same,HDO enrichment of body fluids considered nontoxic,[4],up to 10%
